The record followed here is patent publication US12108719B2, “Methods for creating doubled haploid plants” (Monsanto Technology LLC, priority 2015, dated 2024).

Experiment [1] relates to DH0 seedlings of Germplasm A. The experiment in a line: Doubling efficiency of DH0 plants after co-dominant ear induction treatment (Example 2). The experiment is classed as in vivo, maize. The text has this:
An F1 hybrid-derived haploid induction population derived from female inbred maize plant Germplasm A was germinated in soil and tended in standard greenhouse maize growing conditions for approximately seven days. Seedlings were then subjected to a bulk colchicine-based chromosome doubling treatment as described above. Following treatment, seedlings were transplanted into pots and tended in a greenhouse at standard greenhouse maize growing conditions to recover.
Twenty-nine days after the colchicine doubling treatment, 77 of the DH0 seedlings were subjected to a co-dominant ear induction treatment comprising the addition of 60 mL of 2.5% PBZ (v/v) in water, which was poured into the soil surrounding the roots of each plant. The seedlings were then tended in standard greenhouse maize growing conditions until they flowered, at which time each plant that produced pollen was self-pollinated. After approximately 3-4 weeks, ears were harvested and the kernels (DH1 seeds) that formed on the treated DH0 plants were counted to determine doubling efficiencies.
Doubling efficiencies (DE) were calculated under four different constraints, depending on the minimum number of kernels an ear had to produce in order to even be included in the calculation. DE04 represents the portion of all the doubled DH0 plants that produced a total of at least four seeds when all ears were considered. DE20 represents the portion of all the doubled DH0 plants that produced a total of at least 20 kernels when all ears were considered. Similarly, DE30 represents the portion of doubled DH0 plants that produced a total of at least 30 kernels when all ears were considered, and DE50 represents the portion of doubled DH0 plants that produced a total of at least 50 kernels when all ears were considered.
Furthermore, the above doubling efficiencies were calculated once by considering only the kernels that formed on the primary ear of each plant (Ear1), once by considering only the kernels that formed on the primary and secondary ear of each plant (Ear2), once by considering only the kernels that formed on the primary, secondary, and tertiary ear of each plant (Ear3), and finally by considering all the kernels that formed on all the ears of each plant (Earall).

The subject of experiment [2] is maize inbred lines Germplasm A and LH244. The experiment in a line: Co-dominant ear induction in diploid inbred lines (Example 5). The experiment is classed as in vivo. As to the method: Seeds of maize inbred lines Germplasm A and LH244 were planted in soil, germinated, and then transplanted to 10-inch pots after approximately one week, one seedling per pot. The plants were subjected to a co-dominant ear induction treatment at the V8 stage comprising drenching the soil surrounding the roots of each plant with 50 mL of a 2.5% PBZ solution (v/v; 0.4% of active ingredient). The plants were tended in a greenhouse until sexual maturity, then they were self-pollinated. When seed set had completed, the number of co-dominant ears, and the total number of kernels, produced by each plant were counted. Control plants for each germplasm were processed in the same way as the treated groups, except that the control plants were not subjected to the co-dominant ear induction treatment.

Setting [3] is: Ear1 (primary ear only), 60 mL 2.5% PBZ 29 days after colchicine doubling.
[4] abbreviates: Ear2 (primary and secondary ear), 60 mL 2.5% PBZ after colchicine doubling.
The mark [5] stands for this setting: Ear3 (primary, secondary and tertiary ear), 60 mL 2.5% PBZ after colchicine doubling.
[6] abbreviates: EarAll (all ears), 60 mL 2.5% PBZ after colchicine doubling.

In experiment [1] (setting [3]), `CC(C)(C)[C@H](O)[C@H](Cc1ccc(Cl)cc1)n1cncn1` (relative stereo) [PBZ, (2S,3S)-1-(4-chlorophenyl)-4,4-dimethyl-2-(1,2,4-triazol-1-yl) pentan-3-ol] came in with a DE04 of 71%, a DE20 of 37%, a DE30 of 26% and a DE50 of 23%. In experiment [1] (setting [4]), this compound displayed a DE04 of 76%, a DE20 of 59%, a DE30 of 47% and a DE50 of 36%. Moreover, in experiment [1] (setting [5]), the DE04 came out at 76%, the DE20 amounted to 65%, the DE30 came to 58% and the DE50 was 50%. Besides, in experiment [1] (setting [6]), the DE04 is given as 76%, the DE20 was determined as 68%, the DE30 was determined as 58% and the DE50 turned out to be 52%. In addition, the “Ave. Ears Per Plant” value in experiment [2] (Treated, Germplasm A diploid, 50 mL 2.5% PBZ soil drench at V8) was found to be 8. For the same compound, in experiment [2] (both germplasms (Germplasm A, LH244)), the “response of average total kernels per plant and average ears per plant vs control” value was “more than doubling”.
